Test system: SW 1271 complex spheroids, viability
Experiment: Anticancer human tumor SW 1271 cell line growth inhibition [LSD1];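 note: spheroids exposed to agents for 7 days before luminescence read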;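 for viability, T/C: 100% = DMSO vehicle control viability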
Conditions: for IC50: curve of first compound; for viability, T/C: stronger effect = lower value
Procedure, shortened: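 Drug combinations with the LSD1 inhibitor iadademstat tested on tumor cells co-cultured as spheroids with endothelial cells and mesenchymal stem cells. Concentrations descended in half-log increments from clinical Cmax or 10 microM.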

Nc1ccccc1NC(=O)c1ccc(CNC(=O)OCc2cccnc2)cc1 + NC1CCC(NC2CC2c2ccccc2)CC1
IC50 (second compound 0.1 µM): 158 nM | IC50 (second compound 0.316 µM): 150 nM | IC50 (second compound 1 µM): 153 nM | IC50 (second compound 3.16 µM): 152 nM | IC50 (second compound 10 µM): 147 nM | viability, T/C (second compound 0.1 µM, first compound 0.00949 µM): 89.1% | viability, T/C (second compound 0.1 µM, first compound 0.03 µM): 78.6% | viability, T/C (second compound 0.1 µM, first compound 0.0949 µM): 64.7% | viability, T/C (second compound 0.1 µM, first compound 0.3 µM): 33.4% | viability, T/C (second compound 0.1 µM, first compound 0.949 µM): 10.5% | viability, T/C (second compound 0.1 µM, first compound 3 µM): 5.83% | viability, T/C (second compound 0.316 µM, first compound 0.00949 µM): 93.6% | viability, T/C (second compound 0.316 µM, first compound 0.03 µM): 69.4% | viability, T/C (second compound 0.316 µM, first compound 0.0949 µM): 68% | viability, T/C (second compound 0.316 µM, first compound 0.3 µM): 31.2% | viability, T/C (second compound 0.316 µM, first compound 0.949 µM): 8.46% | viability, T/C (second compound 0.316 µM, first compound 3 µM): 5.39% | viability, T/C (second compound 1 µM, first compound 0.00949 µM): 101% | viability, T/C (second compound 1 µM, first compound 0.03 µM): 73.5% | viability, T/C (second compound 1 µM, first compound 0.0949 µM): 67.8% | viability, T/C (second compound 1 µM, first compound 0.3 µM): 35.9% | viability, T/C (second compound 1 µM, first compound 0.949 µM): 7.27% | viability, T/C (second compound 1 µM, first compound 3 µM): 8.95% | viability, T/C (second compound 3.16 µM, first compound 0.00949 µM): 95.5% | viability, T/C (second compound 3.16 µM, first compound 0.03 µM): 85.1% | viability, T/C (second compound 3.16 µM, first compound 0.0949 µM): 62.3% | viability, T/C (second compound 3.16 µM, first compound 0.3 µM): 32.9% | viability, T/C (second compound 3.16 µM, first compound 0.949 µM): 10.5% | viability, T/C (second compound 3.16 µM, first compound 3 µM): 4.3% | viability, T/C (second compound 10 µM, first compound 0.00949 µM): 95.8% | viability, T/C (second compound 10 µM, first compound 0.03 µM): 92.6% | viability, T/C (second compound 10 µM, first compound 0.0949 µM): 61.6% | viability, T/C (second compound 10 µM, first compound 0.3 µM): 29.2% | viability, T/C (second compound 10 µM, first compound 0.949 µM): 11.2% | viability, T/C (second compound 10 µM, first compound 3 µM): 7.03%
